# Values quoted from earlier work in patent US11478445B2, “Method for treating acute myeloid leukemia” (Bionomics Limited, priority 2017, dated 2022).
# Tests used:
# [1] = system: KG1 cells; details: Petit et al. 2008, Madlambayan et al. 2010; cited from earlier work
# [2] = system: KG1 cells; details: Petit et al. 2008; cited from earlier work
SMILES,total ROS levels [1],cell cycle [2]
"COc1ccc(/C=C\c2cc(OC)c(OC)c(OC)c2)c(O)c1O [OXi4500, combretastatin-A1]",increase in total ROS levels,
COc1ccc(/C=C\c2cc(OC)c(OC)c(OC)c2)cc1OP(=O)(O)O [combretastatin-A4-P],increase in total ROS levels,induces G2/M cell cycle arrest
